Data: ChEMBL document CHEMBL1159287, “Effect of anthraquinone derivatives on lipid peroxidation in rat heart mitochondria: structure-activity relationship” (J Nat Prod, 1995)
pIC50: −log10 of the molar value. The source made the active and inactive calls. The calls are words filed in the database; no cut-off is given here.

What was measured:
[1] = Inhibition of lipid peroxidation in Sprague-Dawley rat heart mitochondria assessed as inhibition of FeSO4-induced oxygen consumption; format: functional
[2] = Inhibition of lipid peroxidation in Sprague-Dawley rat heart mitochondria assessed as inhibition of FeSO4-induced malondialdehyde formation; format: functional
Rattus norvegicus [3] = species: Rattus norvegicus; assay: Inhibition of lipid peroxidation in Sprague-Dawley rat heart mitochondria assessed as inhibition of FeSO4-induced malondialdehyde formation up to 0.3 mM relative to control; format: functional; design: scale not given: the % may be the effect or the level left
Rattus norvegicus [4] = species: Rattus norvegicus; assay: Inhibition of lipid peroxidation in Sprague-Dawley rat heart mitochondria assessed as inhibition of FeSO4-induced oxygen consumption up to 0.3 mM relative to control; format: functional; design: scale not given: the % may be the effect or the level left
[5] = test system: Radical scavenging activity; assay: Antioxidant activity assessed as DPPH radical scavenging activity after 90 mins; format: functional
Rattus norvegicus [6] = species: Rattus norvegicus; assay: Antioxidant activity in Sprague-Dawley rat heart mitochondria assessed as inhibition of conjugated diene formation at 1 to 300 uM; format: functional
PBMC = assay: Inhibition of thymidine uptake in phytohemagglutininin-stimulated human PBMC; format: functional, cell-based

SMILES | pIC50 [1] | pIC50 [2] | Activity (Rattus norvegicus [3]) [%] | Activity (Rattus norvegicus [4]) [%] | also measured
Oc1cc(O)c2c(c1)O[C@H](c1ccc(O)c(O)c1)[C@H](O)[C@H]2c1c(O)cc(O)c2c1O[C@H](c1ccc(O)c(O)c1)[C@H](O)C2 [PROCYANIDIN B2] | 4.96 | 5.05 | – | – | –
CCc1ccc2c(c1)C(=O)c1ccccc1C2=O | – | – | < 50 | < 50 | –
Nc1ccc2c(c1)C(=O)c1ccccc1C2=O | – | – | < 50 | < 50 | –
O=C1c2cccc(O)c2C(=O)c2cccc(O)c21 | – | – | < 50 | < 50 | –
O=C(O[C@@H]1Cc2c(O)cc(O)cc2O[C@H]1c1cc(O)c(O)c(O)c1)c1cc(O)c(O)c(O)c1 [GALLOCATECHIN GALLATE] | 4.85 | 5.07 | – | – | –
O=C(O[C@@H]1Cc2c(O)cc(O)cc2O[C@@H]1c1cc(O)c(O)c(O)c1)c1cc(O)c(O)c(O)c1 [EPIGALOCATECHIN GALLATE] | 4.91 | 5.03 | – | – | –
Cc1cc(O)c2c(c1)C(=O)c1cc(O)cc(O[C@@H]3O[C@H](CO)[C@@H](O)[C@H](O)[C@H]3O)c1C2=O | – | – | < 50 | < 50 | –
Cc1c(C)c2c(c(C)c1O)CC[C@@](C)(CCC[C@H](C)CCC[C@H](C)CCCC(C)C)O2 [ALPHA-TOCOPHEROL] | 3.99 | 4.02 | – | – | Activity [5]: Active
Cc1cc(O)c2c(c1)C(=O)c1cc(O)cc(O)c1C2=O [EMODIN] | 4.90 | 4.77 | – | – | Activity [5]: inactive; Activity (Rattus norvegicus [6]): inactive
O=C(O[C@@H]1Cc2c(O)cc(O)cc2O[C@@H]1c1ccc(O)c(O)c1)c1cc(O)c(O)c(O)c1 [EPICATECHIN GALLATE] | 5.08 | 5.27 | – | – | –
O=C1OC[C@H]2OC(O)[C@@H]3OC(=O)c4cc(O)c(O)c(O)c4-c4c(cc(O)c(O)c4O)C(=O)O[C@H]3[C@@H]2OC(=O)c2cc(O)c(O)c(O)c2-c2c1cc(O)c(O)c2O (stereo partly drawn) [PEDUNCULAGIN] | 5.11 | 4.92 | – | – | –
COc1cc(O)c2c(c1)C(=O)c1cc(C)cc(O)c1C2=O | – | – | < 50 | < 50 | –
Cc1cc(O)c2c(c1)C(=O)c1cccc(O)c1C2=O | – | – | < 50 | < 50 | –
O=C(O)c1ccc2c(c1)C(=O)c1ccccc1C2=O | – | – | < 50 | < 50 | –
COc1cc(O[C@@H]2O[C@H](CO)[C@@H](O)[C@H](O)[C@H]2O)c2c(c1)C(=O)c1cc(C)cc(O)c1C2=O | – | – | < 50 | < 50 | –
O=C1c2ccccc2C(=O)c2c1ccc(O)c2O [ATHRAQUINONES A] | 4.19 | 4.31 | – | – | Activity [5]: Active
O=C1c2ccccc2C(=O)c2ccccc21 | – | – | < 50 | < 50 | –
Nc1cccc2c1C(=O)c1ccccc1C2=O | – | – | < 50 | < 50 | –
O=C1c2ccc(O)cc2C(=O)c2ccc(O)cc21 | – | – | < 50 | < 50 | Activity (PBMC): Active
